# Test results: patent US20220313629A1, “TRANSIENT POTENTIAL MELASTATIN 8 (TRPM8) ANTAGONISTS AND RELATED METHODS” (MARSHALL UNIVERSITY RESEARCH CORPORATION, priority 2019, published 2022)
# Like-named read-outs stand apart in the source and are kept apart here.
# Legend:
# Type in all cases: cell-based
# TRPM8 = TRPM8 (Homo sapiens, UniProt Q7Z2W7); experiment: TRPM8 antagonist activity by Fura-2 Ca2+ imaging in HEK-293 cells stably expressing human TRPM8; conditions: for IC50: read-out: Functional Activity hTRPM8 potency IC50 ± SEM
# human TRPV1 = human TRPV1 (Homo sapiens, UniProt Q8NER1); experiment: TRPV1 agonist and antagonist Ca2+ flux assay (FLIPR, Fluo-8) in HEK293 cells stably expressing human TRPV1; conditions: for hTRPV1 % Activation (n = 3): normalized to Emax of capsaicin (3 μM)
# human TRPA1 = human TRPA1 (Homo sapiens, UniProt O75762); experiment: TRPA1 agonist and antagonist Ca2+ flux assay (FLIPR, Fluo-8) in HEK293 cells stably expressing human TRPA1; conditions: for hTRPA1 % Activation (n = 3-5): normalized to Emax of AITC (300 μM)
# [1] = inhibition of icilin (500 nM)-evoked Ca2+ entry, HEK-293 cells stably expressing hTRPM8, mean ± SEM, three independent experiments
# [2] = HEK293, read-out: hTRPV1 % Inhibition (n = 3)
# [3] = at concentrations 13- to 25-fold higher than hTRPM8 IC50
# [4] = HEK293, read-out: hTRPA1 % Inhibition (n = 3)
# [5] = HEK293, read-out: % Activation Mean ± SEM (n = 5), TRPV1 antagonist data (Percentage Inhibition Normalized to EC80 Control)
# human TRPV1, sequence (Q8NER1 whole entry): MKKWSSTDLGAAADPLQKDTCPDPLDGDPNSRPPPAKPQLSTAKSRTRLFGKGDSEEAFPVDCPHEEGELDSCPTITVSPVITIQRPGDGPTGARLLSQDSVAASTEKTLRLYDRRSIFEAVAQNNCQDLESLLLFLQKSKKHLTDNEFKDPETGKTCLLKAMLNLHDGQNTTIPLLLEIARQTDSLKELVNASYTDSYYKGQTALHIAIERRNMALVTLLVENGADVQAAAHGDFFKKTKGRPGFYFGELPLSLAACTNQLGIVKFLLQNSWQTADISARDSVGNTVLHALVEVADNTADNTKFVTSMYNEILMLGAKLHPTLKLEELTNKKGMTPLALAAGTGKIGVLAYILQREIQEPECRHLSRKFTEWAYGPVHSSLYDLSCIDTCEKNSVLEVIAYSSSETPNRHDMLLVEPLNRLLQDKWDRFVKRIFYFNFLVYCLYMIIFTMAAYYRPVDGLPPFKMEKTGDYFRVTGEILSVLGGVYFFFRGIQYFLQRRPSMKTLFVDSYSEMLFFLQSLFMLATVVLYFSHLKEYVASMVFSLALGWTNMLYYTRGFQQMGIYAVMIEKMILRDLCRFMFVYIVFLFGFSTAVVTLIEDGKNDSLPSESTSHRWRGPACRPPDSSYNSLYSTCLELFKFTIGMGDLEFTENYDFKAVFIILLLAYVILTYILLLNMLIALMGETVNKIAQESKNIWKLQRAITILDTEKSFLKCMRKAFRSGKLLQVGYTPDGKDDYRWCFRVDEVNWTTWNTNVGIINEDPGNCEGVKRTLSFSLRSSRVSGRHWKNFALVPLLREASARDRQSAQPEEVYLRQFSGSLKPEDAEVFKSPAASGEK
# TRPM8, sequence (Q7Z2W7 whole entry): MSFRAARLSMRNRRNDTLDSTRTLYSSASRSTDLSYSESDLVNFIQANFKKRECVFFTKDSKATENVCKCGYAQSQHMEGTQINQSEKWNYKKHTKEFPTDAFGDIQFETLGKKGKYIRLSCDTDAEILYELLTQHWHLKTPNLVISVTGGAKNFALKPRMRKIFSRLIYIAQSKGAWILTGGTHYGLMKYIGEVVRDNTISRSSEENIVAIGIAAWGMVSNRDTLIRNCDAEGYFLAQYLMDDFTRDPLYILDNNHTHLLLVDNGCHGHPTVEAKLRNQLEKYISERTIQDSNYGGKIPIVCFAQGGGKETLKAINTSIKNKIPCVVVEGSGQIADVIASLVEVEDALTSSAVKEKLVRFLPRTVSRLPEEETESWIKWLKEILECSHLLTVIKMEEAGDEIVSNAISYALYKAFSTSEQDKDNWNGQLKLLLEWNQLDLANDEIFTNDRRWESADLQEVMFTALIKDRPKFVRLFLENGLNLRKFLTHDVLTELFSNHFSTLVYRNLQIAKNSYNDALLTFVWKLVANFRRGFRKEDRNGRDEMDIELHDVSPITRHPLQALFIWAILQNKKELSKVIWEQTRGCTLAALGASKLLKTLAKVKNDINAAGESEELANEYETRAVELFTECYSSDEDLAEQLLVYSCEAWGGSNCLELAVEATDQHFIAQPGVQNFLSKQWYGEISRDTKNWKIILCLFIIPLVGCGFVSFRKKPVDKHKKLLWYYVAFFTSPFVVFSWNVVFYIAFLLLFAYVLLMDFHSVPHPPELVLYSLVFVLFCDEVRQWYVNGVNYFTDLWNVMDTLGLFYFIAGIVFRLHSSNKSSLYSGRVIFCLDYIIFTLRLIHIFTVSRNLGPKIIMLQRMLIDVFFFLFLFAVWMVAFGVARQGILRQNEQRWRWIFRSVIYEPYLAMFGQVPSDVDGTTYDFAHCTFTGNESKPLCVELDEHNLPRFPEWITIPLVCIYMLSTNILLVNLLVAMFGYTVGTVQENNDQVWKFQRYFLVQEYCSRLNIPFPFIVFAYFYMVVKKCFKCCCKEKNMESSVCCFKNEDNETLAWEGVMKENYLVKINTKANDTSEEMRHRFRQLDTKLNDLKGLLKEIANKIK
# human TRPA1, sequence (O75762 whole entry): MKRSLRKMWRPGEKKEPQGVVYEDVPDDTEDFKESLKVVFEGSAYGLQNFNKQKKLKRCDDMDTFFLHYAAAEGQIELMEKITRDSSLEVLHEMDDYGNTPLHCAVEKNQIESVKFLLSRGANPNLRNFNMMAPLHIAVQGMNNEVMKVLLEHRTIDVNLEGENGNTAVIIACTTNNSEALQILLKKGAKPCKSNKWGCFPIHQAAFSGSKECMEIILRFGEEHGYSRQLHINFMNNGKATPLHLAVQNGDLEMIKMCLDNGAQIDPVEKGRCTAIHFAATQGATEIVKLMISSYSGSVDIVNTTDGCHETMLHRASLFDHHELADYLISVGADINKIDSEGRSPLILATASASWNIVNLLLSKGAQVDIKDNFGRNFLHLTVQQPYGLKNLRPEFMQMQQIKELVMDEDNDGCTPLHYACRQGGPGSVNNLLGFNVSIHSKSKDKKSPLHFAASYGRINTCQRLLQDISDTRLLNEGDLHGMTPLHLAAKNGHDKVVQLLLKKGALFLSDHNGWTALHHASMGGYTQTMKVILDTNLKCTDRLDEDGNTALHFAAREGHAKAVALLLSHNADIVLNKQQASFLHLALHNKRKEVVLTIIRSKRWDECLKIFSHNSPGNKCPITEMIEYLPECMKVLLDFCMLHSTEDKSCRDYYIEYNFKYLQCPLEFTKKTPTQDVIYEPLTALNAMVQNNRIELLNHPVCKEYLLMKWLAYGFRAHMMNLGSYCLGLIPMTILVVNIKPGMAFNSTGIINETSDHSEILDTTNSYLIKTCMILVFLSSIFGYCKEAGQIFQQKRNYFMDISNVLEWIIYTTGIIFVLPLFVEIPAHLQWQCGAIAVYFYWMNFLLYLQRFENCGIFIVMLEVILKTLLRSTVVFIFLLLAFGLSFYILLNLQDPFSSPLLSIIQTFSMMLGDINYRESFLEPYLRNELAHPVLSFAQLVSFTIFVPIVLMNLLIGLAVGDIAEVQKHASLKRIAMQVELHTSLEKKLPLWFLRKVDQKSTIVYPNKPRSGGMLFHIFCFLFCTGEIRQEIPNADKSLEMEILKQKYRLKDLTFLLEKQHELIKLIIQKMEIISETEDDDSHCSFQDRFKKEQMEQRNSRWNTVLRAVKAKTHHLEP
compound,measurement,setting,value
"CC1CCC(C(C)C)C(NC(=O)c2ccc(-c3ccccc3)cc2)C1 (mixture of isomers) [Compound 2, N-(2-isopropyl-5-methylcyclohexyl)-[1,1′-biphenyl]-4-carboxamide]",increase of hTRPM8 activity relative to Compound 1,TRPM8; icilin Ca2+ assay,30 fold
same,IC50,TRPM8; [1],0.468 ± 0.001 µM
"O=C(NC1CCCC2CCCCC21)c1ccc(-c2ccccc2)cc1 (mixture of isomers) [Compound 8, N-(decahydronaphthalen-1-yl)-[1,1′-biphenyl]-4-carboxamide]",IC50,TRPM8; [1],21 ± 1 µM
"O=C(NC1CCC2CCCCC2C1)c1ccc(-c2ccccc2)cc1 (racemic) [Compound 12, N-((2SR,9RS,10SR)-decahydronaphthalen-2-yl)-[1,1′-biphenyl]-4-carboxamide]",inhibition at 0.003 µM,human TRPV1; [2],-12 ± 3%
same,inhibition at 0.03 µM,human TRPV1; [2],1 ± 2%
same,effect on hTRPV1-mediated responses (intrinsic and antagonist activity),human TRPV1; [3],do not affect
same,hTRPV1 % Activation (n = 3),human TRPV1; tested at 3 nM,2 ± 1%
same,hTRPV1 % Activation (n = 3),human TRPV1; tested at 30 nM,3 ± 1%
same,inhibition at 0.003 µM,human TRPA1; [4],-0.3 ± 3%
same,inhibition at 0.03 µM,human TRPA1; [4],5 ± 9%
same,effect on hTRPA1-mediated responses (intrinsic and antagonist activity),human TRPA1; [3],do not affect
same,hTRPA1 % Activation (n = 3-5),human TRPA1; tested at 3 nM,−2.3 ± 1.0%
same,hTRPA1 % Activation (n = 3-5),human TRPA1; tested at 30 nM,−2.1 ± 0.5%
"O=C(NC1CC2CCC1C2)c1ccc(-c2ccccc2)cc1 (single isomer, unassigned) [Compound 4, N-(bicyclo[2.2.1]heptan-2-yl)-[1,1′-biphenyl]-4-carboxamide]",IC50,TRPM8,7.1 ± 0.9 µM
"C=CCN=C=S [AITC, Allyl isothiocyanate, reference compound]","% Activation Mean ± SEM (n = 5), TRPA1 agonist data","human TRPA1; 100 nM, normalized to Emax of AITC",−0.8 ± 0.4%
same,"% Activation Mean ± SEM (n = 5), TRPA1 agonist data","human TRPA1; 300 nM, normalized to Emax of AITC",−0.5 ± 0.2%
same,"% Activation Mean ± SEM (n = 5), TRPA1 agonist data","human TRPA1; 1,000 nM, normalized to Emax of AITC",−0.5 ± 0.2%
same,"% Activation Mean ± SEM (n = 5), TRPA1 agonist data","human TRPA1; 3,000 nM, normalized to Emax of AITC",−1.2 ± 0.2%
same,"% Activation Mean ± SEM (n = 5), TRPA1 agonist data","human TRPA1; 10,000 nM, normalized to Emax of AITC",68.8 ± 2.9%
same,"% Activation Mean ± SEM (n = 5), TRPA1 agonist data","human TRPA1; 30,000 nM, normalized to Emax of AITC",78.5 ± 1.0%
same,"% Activation Mean ± SEM (n = 5), TRPA1 agonist data","human TRPA1; 100,000 nM, normalized to Emax of AITC",94.2 ± 2.4%
same,"% Activation Mean ± SEM, TRPA1 agonist data","human TRPA1; 300,000 nM, normalized to Emax of AITC, n = 10",100.0 ± 1.3 %
"COc1cc(CNC(=O)CCCC/C=C/C(C)C)ccc1O [Capsaicin, reference compound]","% Activation Mean ± SEM (n = 5), TRPV1 agonist data","human TRPV1; 1 nM, normalized to Emax of capsaicin",−0.2 ± 1.0%
same,"% Activation Mean ± SEM (n = 5), TRPV1 agonist data","human TRPV1; 3 nM, normalized to Emax of capsaicin",−1.7 ± 0.7%
same,"% Activation Mean ± SEM (n = 5), TRPV1 agonist data","human TRPV1; 10 nM, normalized to Emax of capsaicin",15.2 ± 0.6%
same,"% Activation Mean ± SEM (n = 5), TRPV1 agonist data","human TRPV1; 30 nM, normalized to Emax of capsaicin",72.4 ± 2.3%
same,"% Activation Mean ± SEM (n = 5), TRPV1 agonist data","human TRPV1; 100 nM, normalized to Emax of capsaicin",81.4 ± 3.3%
same,"% Activation Mean ± SEM (n = 5), TRPV1 agonist data","human TRPV1; 300 nM, normalized to Emax of capsaicin",91.8 ± 3.7%
same,"% Activation Mean ± SEM (n = 5), TRPV1 agonist data","human TRPV1; 1,000 nM, normalized to Emax of capsaicin",101.6 ± 2.0%
same,"% Activation Mean ± SEM, TRPV1 agonist data","human TRPV1; 3,000 nM, normalized to Emax of capsaicin, n = 10",100.0 ± 1.8 %
same,"% Activation, EC80 agonist control of the TRPV1 antagonist assay","human TRPV1; Capsaicin EC80, 100 nM, normalization control",100%
"Oc1cc2c(cc1O)CN(C(=S)NCCc1ccc(Cl)cc1)CCC2 [Capsazepine, reference compound]",inhibition at 0.003 µM,human TRPV1; [5],1.6 ± 4.2%
same,inhibition at 0.01 µM,human TRPV1; [5],0.1 ± 1.3%
same,inhibition at 0.03 µM,human TRPV1; [5],1.1 ± 1.7%
same,inhibition at 0.1 µM,human TRPV1; [5],7.1 ± 2.2%
same,inhibition at 0.3 µM,human TRPV1; [5],23.4 ± 2.5%
same,inhibition at 1 µM,human TRPV1; [5],94.2 ± 1.1%
same,inhibition at 3 µM,human TRPV1; [5],100.6 ± 0.3%
same,inhibition at 10 µM,human TRPV1; [5],101.2 ± 0.5%
same,IC50,"human TRPV1; capsaicin 100 nM, read-out: IC50, blockade of capsaicin-activated hTRPV1 responses",0.451 ± 0.048 µM
"CC(C)[C@@H]1CC[C@@H](C)C[C@H]1NC(=O)c1ccc(-c2ccccc2)cc1 [Compound 1, reference compound]",IC50,TRPM8,16 ± 1 µM
"O=C(NC1CCCCC1)c1ccc(-c2ccccc2)cc1 [Compound 3, N-cyclohexyl-[1,1′-biphenyl]-4-carboxamide]",IC50,TRPM8; [1],49 ± 1 µM
"O=C(NC1CC2CCC(C2)C1)c1ccc(-c2ccccc2)cc1 (stereo not shown) [Compound 6, N-(bicyclo[3.2.1]octan-3-yl)-[1,1′-biphenyl]-4-carboxamide]",IC50,TRPM8; [1],0.692 ± 0.001 µM
